The source of these data is US20240377291A1, “AZETIDINE SUBSTITUTED ROSAMINES USEFUL FOR STAINING MITOCHONDRIA” (TOCRIS COOKSON LIMITED, priority 2021, published 2024).

What all share (assay type): cell-based
Data set [1] relates to mitochondria in HeLa cells. Description: Co-localization with TOM20 antibody in fixed HeLa cells (probe added before fixation). The source says: In each experiment, an antibody for the mitochondrial marker TOM20 has also been added. Co-localization of TOM20 and mitochondrial probes is directly compared in the merged data.
Data set [2] deals with mitochondria in HeLa cells. The data set is described as follows: Co-staining of COMPOUND 5 with DRP1 antibody NBP2-23489 on fixed, permeabilized HeLa cells. The conditions noted are these: 200 nM, 15 minutes, room temperature. The procedure: NBP2-23489 was incubated on fixed, permeabilized HeLa cells at 8 μg/mL for 2 hours at room temperature. Cells were then incubated with an NL557 secondary antibody (R&D Systems; Catalog #NL007) for 1 hour at room temperature protected from light. Lastly, cells were incubated with COMPOUND 5 at 200 nM for 15 minutes at room temperature protected from light. Cells were cover-slipped with a DAPI-containing mounting media and imaged. Antibody staining was pseudo-coloured green, and mitochondrial marker staining was pseudo-coloured red.

Data set [3] deals with mitochondria in COS-7 cells. The data set is described as follows: Mitochondrial membrane de-polarisation experiments (CCCP) in COS-7 cells. To be noted: for mitochondrial signal after CCCP Chase (depolarization after staining) / mitochondrial accumulation after depolarizing the membrane potential with CCCP before staining: 100 nM dye 30 minutes; for mitochondrial signal after CCCP Chase (depolarization after staining): then 20 μM CCCP 30 minutes; for mitochondrial accumulation after depolarizing the membrane potential with CCCP before staining: 20 μM CCCP pre-treatment 30 minutes. The procedure: COS-7 cells were pre-treated with media or 20 μM CCCP for 30 minutes followed by a staining step with 100 nM COMPOUND 5 or 100 nM Comparator (MitoTracker Deep Red FM) for 30 minutes in the presence/absence of 20 μM CCCP. After the staining, excessive dye was washed out with media, with or without 20 μM CCCP for 30 minutes.

Data set [4] relates to mitochondria in COS-7 cells. Description: Staining of COS-7 cells at varying concentrations followed by PFA fixation, spinning disk confocal imaging. The conditions noted are these: for toxicity at 200 nM: 30 minutes; for mitochondrial staining at low concentrations: then 4% PFA fixation; for effect of high concentration on mitochondria (fragmentation and peri-nuclear clustering suggesting toxic effects): above 200 nM. The procedure: Both COMPOUND 5 and the Comparator show some toxicity at 200 nM. COMPOUND 5 gives nice staining at 25-100 nM.
In FIG. 4 (scale bar=10 μm), images are shown after COS-7 cells were stained for 30 minutes with indicated concentrations followed by immediate fixation with 4% PFA for 20 minutes at 37° C. Images were acquired using a spinning disk confocal microscope with identical exposure time and laser power and were processed with identical settings to allow a direct comparison.

The subject of data set [5] is mitochondria in HeLa cells. Description: Staining of HeLa cells at a single concentration followed by fixation. To be noted: 100 nM probe 40 minutes, then 4% PFA 10 minutes. How it is done: In FIG. 5 (scale bar=10 μm), images are shown after HeLa cells were stained with 100 nM probe for 40 minutes, followed by fixation with 4% PFA for 10 minutes. Laser power and gain have been optimized for each individual probe in this figure.

For data set [6], the system named is mitochondria in HeLa cells. The data set is described as follows: Post-fixation staining of HeLa cells, intensity profiles compared with a Comparator added before fixation. The conditions noted are these: HeLa cells fixed with 4% PFA 20 min; COMPOUND 5 75 nM added after fixation. How it is done:
COMPOUND 5 and the Comparator have distinct absorption and emission maxima. Intensity profiles (lower panel) taken across a set frame are shown for both COMPOUND 5 and Comparator.
Live HeLa cells were stained with a Comparator (250 nM, 45 min) and were then fixed (4% PFA, 20 min). After fixation, COMPOUND 5 (75 nM) was added and the cells were imaged. COMPOUND 5 and Comparator have distinct absorption and emission profiles and spill over between channels was not observed. Intensity profiles for both mitochondrial stains were taken across a set frame (lower panel) and compared.

For the compound `ClCc1ccccc1-c1c2ccc(=[N+]3CCC3)cc-2oc2cc(N3CCC3)ccc12` [COMPOUND 8, 1-(6-(azetidin-1-yl)-9-(2-(chloromethyl)phenyl)-3H-xanthen-3-ylidene)azetidin-1-ium chloride], the “co-localization with mitochondrial marker TOM20 after fixation” value in data set [1] was “co-localize with the mitochondrial marker TOM20”.

Take `C[Si]1(C)C2=CC(=[N+]3CCC3)C=CC2=C(c2ccccc2CCl)c2ccc(N3CCC3)cc21` [COMPOUND 5, 1-(7-(azetidin-1-yl)-10-(2-(chloromethyl)phenyl)-5,5-dimethyldibenzo[b,e]silin-3(5H)-ylidene)azetidin-1-ium chloride]: in data set [2], the “mitochondrial localization (overlap with antibody staining)” value was “localizes specifically to the mitochondria”. For the same compound, in data set [3], the “mitochondrial signal after CCCP Chase (depolarization after staining)” value was “strong mitochondrial signal” and the “mitochondrial accumulation after depolarizing the membrane potential with CCCP before staining” value was “reduces the mitochondrial accumulation”. Moreover, the “speed of mitochondrial staining relative to Comparator” value in data set [3] (inferred from CCCP chase) was “more rapidly than the Comparator”. Besides, in data set [4] (COS-7 cells), the “toxicity at 200 nM” value is on record as “some toxicity”; the “effect of high concentration on mitochondria (fragmentation and peri-nuclear clustering suggesting toxic effects)” value is “mitochondrial alterations”; the “staining of non-mitochondrial structures (ER, nuclear envelope) at high concentrations” value is “stained additionally other cellular structures”. Besides, in data set [4] (COS-7 cells, 25-100 nM, 30 min), the “toxicity at low concentrations” value is “no obvious toxicity” and the “mitochondrial staining at low concentrations” value was “good mitochondrial signal with little background”. For the same compound, in data set [4] (fixed COS-7 cells, particularly at 25 nM and 50 nM), the “brightness compared to the Comparator” value is reported as “significantly improved brightness”. The “staining of mitochondria following fixation compared to a Comparator” value in data set [5] was “retains clearer staining of mitochondria”. The “staining profile when added after fixation, compared with Comparator added before fixation” value in data set [6] is given as “very high similarity in staining profile”.

With `C[N+]1=C(/C=C/C=C/C=C2\N(Cc3ccc(CCl)cc3)c3ccccc3C2(C)C)C(C)(C)c2ccccc21.[Cl-]` [Comparator, MitoTracker Deep Red FM, reference compound], in data set [3], the “mitochondrial signal after CCCP Chase (depolarization after staining)” value is listed as “reversible” and the “mitochondrial accumulation after depolarizing the membrane potential with CCCP before staining” value is reported as “reduces the mitochondrial accumulation”. For the same compound, in data set [4] (COS-7 cells), the “toxicity at 200 nM” value is recorded as “some toxicity”; the “effect of high concentration on mitochondria (fragmentation and peri-nuclear clustering suggesting toxic effects)” value is on record as “mitochondrial alterations”; the “staining of non-mitochondrial structures (ER, nuclear envelope) at high concentrations” value is listed as “stained additionally other cellular structures”. Besides, in data set [4] (COS-7 cells, 25-100 nM, 30 min), the “mitochondrial staining at low concentrations” value was “decreased at low concentration”.

In the case of `COC1CN(c2ccc3c(-c4ccccc4CCl)c4ccc(=[N+]5CC(OC)C5)cc-4oc3c2)C1` (centres unmarked) [COMPOUND 9, 1-(9-(2-(chloromethyl)phenyl)-6-(3-methoxyazetidin-1-yl)-3H-xanthen-3-ylidene)-3-methoxyazetidin-1-ium chloride], the “co-localization with mitochondrial marker TOM20 after fixation” value in data set [1] was “co-localize with the mitochondrial marker TOM20”.
